Here are results for two compounds from publication PMC9629855, “Development of ASIC1a ligand-gated ion channel drug screening assays across multiple automated patch clamp platforms” (Frontiers in Molecular Neuroscience, 2022).

Where “and” joins values, the source holds several entries; their conditions need not be identical. Equal values may be shown once. Read-outs that look alike come from different tables or passages of the source.

In assay [1] the test system is endogenous proton-activated currents in HEK cells. Description: cells. As to conditions: for IC50: pH 6.5 activation, QPatch 48, read-out: mean IC50. It is filed as cell-based, human. The procedure:
CHO hASIC1a cells were cultured according to vendor instructions (B-SYS GmbH) and HEK cells using standard in-house methods. Both cell lines were harvested using optimized protocols and re-suspended in serum-free media (Gibco CHO-S-SFM from Thermo Fisher Scientific for CHO cells, and Ex-Cell 302 from Merck Sigma-Aldrich for HEK cells) to obtain a suspension of cells with smooth membranes and little debris, before transfer to the automated cell hotel consisting of a 60 ml plastic container (Sophion SB2050) and a magnetic stir bar to prevent cell clumping. An aliquot of cells is then aspirated into a 1 ml microcentrifuge tube and spun down (typically 150 g for 2.5 min) and the supernatant discarded before a user-defined volume of external solution is added by the robot and the cells re-suspended to achieve the desired final cell suspension density before application to primed QPlates. Cell capture, sealing and whole-cell access was achieved using optimized QPatch protocols before currents were recorded using a holding potential of −60 mV. […] Cells were washed three times with external pH 7.3 solution (5 μl) between applications of activating acidic solution to establish a stable ASIC1a current baseline. […] Each concentration of reference compound was applied to each cell before (i.e., during each pH 7.3 application period) and during each pH stimulus (IC50 mode). Thus, each concentration of test compound was pre-incubated with cells for at least 2 min before, and then during each acidic solution challenge, before wash-off in a neutral pH 7.3 solution that contained the next concentration of the same compound. Cells were allowed at least 2 min between applications of acidic solution to enable ASIC1a receptors to recover from desensitization.
Concentration-response xC50 curves from Patchliner and QPatch 48 experiments were calculated by plotting %inhibition (antagonists) or activation (pH) data against concentration in Prism software (GraphPad), using the variable sigmoidal dose-response function to fit the Hill equation with theoretical minimum block of 0% and maximum block of 100% and a free constant for Hill slope. Inward current amplitudes were compared to the response to a control pH application (typically pH 6.5) prior to antagonist application or excitation by solutions of different pH to enable calculation of %inhibition or %activation for each cell.
To quickly confirm a previous publication that HEK cells express endogenous ASIC1a receptor channels and assess the suitability of this cell system for drug discovery screening on APC platforms, we utilized the medium throughput QPatch 48 device. The QPatch uses 48 well microfluidic planar borosilicate chips and coated titanium pipette tips to make whole-cell recordings and sequentially apply small liquid volumes to enable rapid activation followed by slower deactivation (wash-off) of ligand-gated ionotropic responses. HEK cells were voltage-clamped at −60 mV and maintained in external solution at pH 7.4 to avoid steady-state desensitization of ASIC1 receptor channels. Cells were stimulated by external solutions with pH values ranging between 7.0 and 5.5 that evoked rapidly activating inward currents, followed by wash-off in pH 7.4 solution.

Assay [2] deals with endogenous pH-gated responses in HEK cells. Set-up: method as in Gunthorpe et al. (2001). As to conditions: manual patch clamp, ref Gunthorpe et al. (2001), read-out: affinity for inhibition of endogenous pH-gated responses; cited from earlier work.
For a further assay, the system named is ENaC channels. Set-up: method as in Canessa et al., 1994. As to conditions: ref Canessa et al., 1994; cited from earlier work.
Assay [3] has as its target T1, hASIC1a (Homo sapiens, UniProt P78348).
T1 sequence (P78348 1-528): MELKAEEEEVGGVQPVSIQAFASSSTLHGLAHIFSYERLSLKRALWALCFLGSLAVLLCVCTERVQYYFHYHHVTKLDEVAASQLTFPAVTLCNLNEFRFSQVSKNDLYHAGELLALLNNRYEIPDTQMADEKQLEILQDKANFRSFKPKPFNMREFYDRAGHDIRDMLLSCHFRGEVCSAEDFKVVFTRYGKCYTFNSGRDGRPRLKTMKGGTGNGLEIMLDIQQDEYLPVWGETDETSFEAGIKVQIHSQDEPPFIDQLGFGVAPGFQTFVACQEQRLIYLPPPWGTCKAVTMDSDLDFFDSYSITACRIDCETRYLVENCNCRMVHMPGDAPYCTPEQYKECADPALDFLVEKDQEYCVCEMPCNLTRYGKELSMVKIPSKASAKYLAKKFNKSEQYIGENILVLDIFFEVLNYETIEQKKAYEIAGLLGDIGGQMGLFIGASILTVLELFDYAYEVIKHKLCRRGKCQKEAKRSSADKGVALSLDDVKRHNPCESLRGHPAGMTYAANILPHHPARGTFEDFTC
Set-up: host or cells: CHO. As to conditions: ref Leng et al., 2016; read-out: Literature IC50; cited from earlier work.

In assay [4] the target is T1, hASIC1a. Nature of the assay: Patchliner APC, CHO ASIC1a currents, stacked tip application, voltage clamp. It is filed as cell-based. Set-up: host or cells: CHO. As to conditions: cumulative application, pH 6.5, stacked tip, single hole. The procedure: CHO cells were cultured according to vendor instructions (B-SYS GmbH) and harvested using optimized protocols before transfer of the cell suspension to the automated cell hotel on the Patchliner where cells are stored at RT (∼20°C) in a small Teflon vessel and repetitively aspirated every 30 s using a 1 ml plastic pipette tip to prevent aggregation. The cell hotel parameters can be adjusted (interval, speed and volume of aspiration) depending on the cell type to maintain viability for 2–3 h. Cell sealing was conducted in the presence of elevated divalent cations and lowered Na^+, which were washed off after whole-cell access was achieved and replaced with external solution while cells were voltage clamped at a holding potential of −60 mV. […]
Concentration-response xC50 curves from Patchliner and QPatch 48 experiments were calculated by plotting %inhibition (antagonists) or activation (pH) data against concentration in Prism software (GraphPad), using the variable sigmoidal dose-response function to fit the Hill equation with theoretical minimum block of 0% and maximum block of 100% and a free constant for Hill slope. […]

For `N=C(N)NC(=O)c1nc(Cl)c(N)nc1N` [Amiloride], the IC50 is 2000 to 3000 nM and 2800 nM in assay [1] (HEK cells); 2820 nM in assay [1] (Homo sapiens, HEK293, pH 6.5, HEK cells); 2200 nM in assay [2]. The inhibition at 0.3 µM in assay [1] (Homo sapiens, HEK293, read-out: inhibition of pH-evoked current (some cells)) is roughly 25%. Besides, in the assay on ENaC channels, the “sensitivity of ENaC channels to inhibition” value is recorded as 100 nM.
Turning to `NC(=NCc1ccccc1)NC(=O)c1nc(Cl)c(N)nc1N` [Benzamil], the figures for the IC50 at hASIC1a [3] and at hASIC1a [4] were 3500 nM and 3650 nM, respectively.
